Inconclusive results and toxic doses are left out. The calls were made as follows: active = survival T/C of 150% or more; inactive = T/C below 125% in these data.
Test system: CD2F1 mice, L1210 leukemia ip, survival T/C
Test: NCI In Vivo Anticancer Drug Screen. Data for tumor model L1210 Leukemia (intraperitoneal) in CD2F1 (CDF1) mice
Details: endpoint: mean survival time, higher = longer survival
Procedure, shortened: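 Mice carrying a transplanted tumor received test compound or vehicle alone. The value is the measurement in the treated group divided by that in the vehicle-treated control group.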

[1] = dose: 100.0 mg/kg/injection, schedule: Q04DX002 (ip), vehicle: saline with Tween-80
[2] = dose: 50.0 mg/kg/injection, schedule: Q01DX009 (ip), vehicle: Klucel (hydroxypropylcellulose) (HPC)
[3] = dose: 100.0 mg/kg/injection, schedule: Q01DX009 (ip), vehicle: Klucel (hydroxypropylcellulose) (HPC)
[4] = dose: 200.0 mg/kg/injection, schedule: Q01DX009 (ip), vehicle: Klucel (hydroxypropylcellulose) (HPC)
[5] = dose: 100.0 mg/kg/injection, schedule: Q01DX009 (ip), vehicle: saline with Tween-80
[6] = dose: 100.0 mg/kg/injection, schedule: Q04DX003 (ip), vehicle: saline with Tween-80
[7] = dose: 200.0 mg/kg/injection, schedule: Q01DX009 (ip), vehicle: saline with Tween-80
[8] = dose: 200.0 mg/kg/injection, schedule: Q04DX003 (ip), vehicle: saline with Tween-80
[9] = dose: 400.0 mg/kg/injection, schedule: Q01DX009 (ip), vehicle: saline with Tween-80
[10] = dose: 400.0 mg/kg/injection, schedule: Q04DX003 (ip), vehicle: saline with Tween-80

Measured: T/C

O=c1cc[nH]c2c(-c3ccccc3)cccc12
inactive: dose: 37.5 mg/kg/injection, schedule: Q01DX009 (ip), vehicle: saline 108 % of control | dose: 75.0 mg/kg/injection, schedule: Q01DX009 (ip), vehicle: saline 105 % of control | dose: 75.0 mg/kg/injection, schedule: Q04DX003 (ip), vehicle: saline 95 % of control | dose: 150.0 mg/kg/injection, schedule: Q01DX009 (ip), vehicle: saline 97 % of control | dose: 150.0 mg/kg/injection, schedule: Q04DX003 (ip), vehicle: saline 98 % of control | dose: 300.0 mg/kg/injection, schedule: Q04DX003 (ip), vehicle: saline 97 % of control

Cn1c(=O)c2c(nc(Br)n2CC(O)CF)n(C)c1=O (centres undefined)
inactive: dose: 12.5 mg/kg/injection, schedule: Q01DX005 (ip), vehicle: distilled water + Tween-80 101 % of control | dose: 25.0 mg/kg/injection, schedule: Q01DX005 (ip), vehicle: distilled water + Tween-80 98 % of control | dose: 50.0 mg/kg/injection, schedule: Q01DX005 (ip), vehicle: distilled water + Tween-80 98 % of control | dose: 100.0 mg/kg/injection, schedule: Q01DX005 (ip), vehicle: distilled water + Tween-80 101 % of control | dose: 200.0 mg/kg/injection, schedule: Q01DX005 (ip), vehicle: distilled water + Tween-80 96 % of control

c1ccc(C[S][Sn]([c]2ccccc2)([c]2ccccc2)[c]2ccccc2)cc1
inactive: dose: 25.0 mg/kg/injection, schedule: Q04DX002 (ip), vehicle: saline with Tween-80 91 % of control | dose: 50.0 mg/kg/injection, schedule: Q04DX002 (ip), vehicle: saline with Tween-80 102 % of control | [1] 94 % of control

COc1ccc(NC(=O)Nc2nccs2)c(Cl)c1
inactive: [2] 98 % of control | [3] 98 % of control | dose: 100.0 mg/kg/injection, schedule: Q04DX003 (ip), vehicle: Klucel (hydroxypropylcellulose) (HPC) 106 % of control | [4] 87 % of control | dose: 200.0 mg/kg/injection, schedule: Q04DX003 (ip), vehicle: Klucel (hydroxypropylcellulose) (HPC) 102 % of control | dose: 400.0 mg/kg/injection, schedule: Q04DX003 (ip), vehicle: Klucel (hydroxypropylcellulose) (HPC) 98 % of control

CCS(=O)(=O)/C=C(\C#Cc1ccccc1)c1ccccc1
inactive: dose: 50.0 mg/kg/injection, schedule: Q01DX009 (ip), vehicle: saline 90 % of control | dose: 100.0 mg/kg/injection, schedule: Q01DX009 (ip), vehicle: saline 91 % of control | dose: 100.0 mg/kg/injection, schedule: Q04DX003 (ip), vehicle: saline 102 % of control | dose: 200.0 mg/kg/injection, schedule: Q01DX009 (ip), vehicle: saline 91 % of control | dose: 200.0 mg/kg/injection, schedule: Q04DX003 (ip), vehicle: saline 102 % of control | dose: 400.0 mg/kg/injection, schedule: Q04DX003 (ip), vehicle: saline 98 % of control

CNC(C)c1ccc(C)cc1 (centres undefined)
inactive: dose: 6.25 mg/kg/injection, schedule: Q04DX003 (ip), vehicle: saline with Tween-80 98 % of control | dose: 12.5 mg/kg/injection, schedule: Q04DX003 (ip), vehicle: saline with Tween-80 108 % of control | dose: 25.0 mg/kg/injection, schedule: Q04DX003 (ip), vehicle: saline with Tween-80 101 % of control

NC(=O)Cn1cnnn1
inactive: dose: 100.0 mg/kg/injection, schedule: Q01DX001 (ip), vehicle: saline with Tween-80 102 % of control | [5] 98 % of control | [6] 101 % of control | dose: 200.0 mg/kg/injection, schedule: Q01DX001 (ip), vehicle: saline with Tween-80 100 % of control | [7] 101 % of control | [8] 95 % of control | dose: 400.0 mg/kg/injection, schedule: Q01DX001 (ip), vehicle: saline with Tween-80 96 % of control | [9] 98 % of control | [10] 95 % of control

Clc1ccc2c(c1)Cc1cc(N(CCBr)CCBr)ccc1-2
inactive: [5] 104 % of control | [7] 106 % of control | [9] 110 % of control

O=C(Nc1ccc(Cl)cc1Cl)SCCO
inactive: [5] 108 % of control | [7] 101 % of control | [9] 95 % of control

Nc1ccccc1N=Cc1cccc([N+](=O)[O-])c1
inactive: [5] 94 % of control | [6] 101 % of control | [7] 96 % of control | [8] 98 % of control | [9] 100 % of control | [10] 101 % of control

C=CCSc1ccccn1
inactive: dose: 50.0 mg/kg/injection, schedule: Q01DX001 (ip), vehicle: carboxymethylcellulose (CMC) 94 % of control | dose: 100.0 mg/kg/injection, schedule: Q01DX001 (ip), vehicle: carboxymethylcellulose (CMC) 86 % of control | dose: 200.0 mg/kg/injection, schedule: Q01DX001 (ip), vehicle: carboxymethylcellulose (CMC) 88 % of control | dose: 400.0 mg/kg/injection, schedule: Q01DX001 (ip), vehicle: carboxymethylcellulose (CMC) 94 % of control

COC(=O)/C(=N\NS(=O)(=O)c1ccc(C)cc1)c1ccccc1
inactive: dose: 25.0 mg/kg/injection, schedule: Q01DX009 (ip), vehicle: Klucel (hydroxypropylcellulose) (HPC) 100 % of control | [2] 102 % of control | [3] 102 % of control | [4] 91 % of control | dose: 400.0 mg/kg/injection, schedule: Q01DX009 (ip), vehicle: Klucel (hydroxypropylcellulose) (HPC) 91 % of control

CNC[C@@H](O)c1ccc(O)c(O)c1
inactive: dose: 1.0 mg/kg/injection, schedule: Q01DX001 (ip), vehicle: saline 97 % of control | dose: 2.0 mg/kg/injection, schedule: Q01DX001 (ip), vehicle: saline 100 % of control | dose: 2.5 mg/kg/injection, schedule: Q01DX009 (ip), vehicle: saline 104 % of control | dose: 4.0 mg/kg/injection, schedule: Q01DX001 (ip), vehicle: saline 107 % of control | dose: 5.0 mg/kg/injection, schedule: Q01DX009 (ip), vehicle: saline 104 % of control | dose: 8.0 mg/kg/injection, schedule: Q01DX001 (ip), vehicle: saline 103 % of control

CCCC[As](=O)(O)C(C)C
inactive: dose: 2.7 mg/kg/injection, schedule: Q01DX009 (ip), vehicle: saline 93 % of control | dose: 4.1 mg/kg/injection, schedule: Q01DX009 (ip), vehicle: saline 102 % of control | dose: 5.5 mg/kg/injection, schedule: Q04DX003 (ip), vehicle: saline 100 % of control | dose: 6.25 mg/kg/injection, schedule: Q01DX009 (ip), vehicle: saline 104 % of control | dose: 8.2 mg/kg/injection, schedule: Q04DX003 (ip), vehicle: saline 104 % of control | dose: 9.3 mg/kg/injection, schedule: Q01DX009 (ip), vehicle: saline 100 % of control | dose: 11.0 mg/kg/injection, schedule: Q04DX002 (ip), vehicle: saline 106 % of control | dose: 12.5 mg/kg/injection, schedule: Q04DX003 (ip), vehicle: saline 104 % of control | dose: 14.0 mg/kg/injection, schedule: Q01DX009 (ip), vehicle: saline 93 % of control | dose: 16.0 mg/kg/injection, schedule: Q04DX002 (ip), vehicle: saline 113 % of control | dose: 18.0 mg/kg/injection, schedule: Q04DX003 (ip), vehicle: saline 100 % of control | dose: 22.0 mg/kg/injection, schedule: Q01DX001 (ip), vehicle: saline 104 % of control | dose: 25.0 mg/kg/injection, schedule: Q04DX002 (ip), vehicle: saline 100 % of control | dose: 28.0 mg/kg/injection, schedule: Q04DX003 (ip), vehicle: saline 102 % of control | dose: 35.0 mg/kg/injection, schedule: Q01DX001 (ip), vehicle: saline 102 % of control | dose: 35.0 mg/kg/injection, schedule: Q04DX002 (ip), vehicle: saline 111 % of control | dose: 50.0 mg/kg/injection, schedule: Q01DX001 (ip), vehicle: saline 104 % of control | dose: 55.0 mg/kg/injection, schedule: Q04DX002 (ip), vehicle: saline 95 % of control | dose: 75.0 mg/kg/injection, schedule: Q01DX001 (ip), vehicle: saline 111 % of control

COc1ccc2c(c1)CCC1C2=CC2=NNC(=O)C2C1c1ccccc1 (centres undefined)
inactive: [1] 92 % of control | dose: 200.0 mg/kg/injection, schedule: Q04DX002 (ip), vehicle: saline with Tween-80 92 % of control | dose: 400.0 mg/kg/injection, schedule: Q04DX002 (ip), vehicle: saline with Tween-80 88 % of control

CN(C)N=Nc1cccc([N+](=O)[O-])c1
inactive: dose: 79.0 mg/kg/injection, schedule: Q01DX009 (ip), vehicle: Klucel (hydroxypropylcellulose) (HPC) 107 % of control | dose: 118.0 mg/kg/injection, schedule: Q01DX009 (ip), vehicle: Klucel (hydroxypropylcellulose) (HPC) 102 % of control
